Values after ≈ are worked out from the molar mass of the structure shown.
Each compound was assayed on P388 (assay: In vivo antitumor activity against mouse P388 cells).
Assay type: functional

Compound	ED50
C[C@@]1(CO)[C@H](O)CC[C@@]2(C)[C@H]1[C@H](O)C[C@H]1C[C@@H]3C[C@@]12CC[C@]3(O)CO	18 µg/mL (≈ 50.8 µM)
C[C@@]1(CO)[C@@H](O)CC[C@@]2(C)[C@H]1CC[C@H]1C[C@@H]3C[C@@]12CC[C@]3(O)CO	13 µg/mL (≈ 38.4 µM)
C[C@@H]1C(=O)CC[C@@]2(C)[C@H]1CC[C@H]1C[C@@H]3C[C@@]12CC[C@]3(O)CO	12 µg/mL (≈ 39.2 µM)
C[C@@]1(C(=O)O)[C@H](O)CC[C@@]2(C)[C@H]1CC[C@H]1C[C@@H]3C[C@@]12CC[C@]3(O)CO	2.2 µg/mL (≈ 6.24 µM)
C[C@]12CCC(=O)[C@@](C)(CO)[C@@H]1CC[C@H]1C[C@@H]3C[C@@]12CC[C@]3(O)CO	2.4 µg/mL (≈ 7.13 µM)
C[C@]12CCC(=O)[C@@](C)(CO)[C@@H]1[C@H](O)C[C@H]1C[C@@H]3C[C@@]12CC[C@]3(O)CO	100 µg/mL (≈ 284 µM)
C[C@@]1(CO)[C@H](O)CC[C@@]2(C)[C@H]1CC[C@H]1C[C@@H]3C[C@@]12CC[C@]3(O)CO [APHIDICOLIN]	0.13 µg/mL (≈ 0.384 µM)

Reference: ChEMBL document CHEMBL1151614, “Microbial transformations of natural antitumor agents, 25. Conversions of 3-ketoaphidicolin” (1984)
